Source: patent US10555987B2, “GHRH agonists for the treatment of ischemic disorders” (UNIVERSITY OF MIAMI, priority 2012, dated 2020)
Marks after values point to notes of the source that are not given here. Non-standard residues stand in square brackets, D forms with d. Residues, ends and D or L forms follow the SMILES beside them. *: point of attachment. Desaminotyrosyl = O=C(CCc1ccc(O)cc1)*; NMeY = CN[C@@H](Cc1ccc(O)cc1)C(=O)O; Nle = CCCC[C@H](N)C(=O)O; Orn = NCCC[C@H](N)C(=O)O; Abu = CC[C@H](N)C(=O)O

How the values were obtained:
GHRH receptor [1] = biological target: T1, GHRH receptor (Homo sapiens, UniProt Q02643); assay: GHRH receptor binding, competition with 125I-labeled JV-1-42, human pituitary membrane homogenates (Table 7); design: Normal human pituitaries were purchased from the National Hormone and Peptide Program; tissue National Hormone and Peptide Program (A.F. Parlow, Harbor-UCLA Medical Center, Torrance, Calif.); host or cells: normal human pituitary, membrane fraction; conditions: for Relative affinity (Binding potency) vs JI-38: JI-38 = 1, Table 7
T1 sequence (Q02643 23-423): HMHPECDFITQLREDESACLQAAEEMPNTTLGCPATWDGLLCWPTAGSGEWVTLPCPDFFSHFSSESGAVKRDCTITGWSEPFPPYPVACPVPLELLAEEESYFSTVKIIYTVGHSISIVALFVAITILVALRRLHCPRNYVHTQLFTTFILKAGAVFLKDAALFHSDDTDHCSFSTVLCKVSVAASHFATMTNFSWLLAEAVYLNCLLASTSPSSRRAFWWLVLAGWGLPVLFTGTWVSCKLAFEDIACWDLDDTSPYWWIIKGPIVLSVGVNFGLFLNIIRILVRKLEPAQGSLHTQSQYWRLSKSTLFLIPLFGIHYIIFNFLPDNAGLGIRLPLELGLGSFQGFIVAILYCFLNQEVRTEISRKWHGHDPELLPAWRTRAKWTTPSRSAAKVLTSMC
Source text: Normal human pituitaries were purchased from the National Hormone and Peptide Program (A.F. Parlow, Los Angeles, County Harbor-UCLA Medical Center, Torrance, Calif.).

GHRH receptor [2] = biological target: T1, GHRH receptor; assay: Receptor binding in vitro, 125I-labeled [His1,Nle27]-hGHRH(1-32)NH2, membrane receptors of human anterior pituitary cells (Table 14); conditions: for Relative affinity (Binding potency) compared to JI-38: JI-38 = 1; for Relative affinity (Binding potency) compared to hGHRH(1-29): hGHRH(1-29)NH2 = 1
GH release = assay: GH releasing potency in vivo, subcutaneous administration (Example 14, Table 12); design: species or system rat; conditions: s.c.; for Serum GH level at selected time after injection (ng/ml), 0 min / Serum GH level at selected time after injection (ng/ml), 15 min / Serum GH level at selected time after injection (ng/ml), 30 min: male rats, dose 3 μg/kg, mean ± SEM
Method: Male Sprague-Dawley rats, weighing 200-250 g, were purchased from Charles River Laboratory (Wilmington, Mass.) and used for experiments. All animal procedures were approved by the Veterans Affairs Animal Care and Use Committee and were conducted in accordance with additional institutional guidelines as well. Briefly, groups of 5-6 animals were used in each experiment. The rats were anesthetized with 50 mg/kg of sodium pentobarbital (Nembutal, Lundbeck Inc., Deerfield, Ill.). Twenty min after inducing anesthesia, GHRH(1-29)NH2, JI-38, or new analogs were injected into the animals intravenously (i.v.) or subcutaneously (s.c.). The peptides were dissolved in 0.01 M acetic acid to get 1 μg/μl stock solution, and then diluted with 5% mannitol. Control rats received 5% mannitol only. Blood samples were collected from the jugular vein at selected times and were used for serum preparation. Concentrations of GH in rat sera were determined by ELISA. The relative potencies of tested peptides were calculated using GHRH(1-29)NH2 and JI-38 for comparison, whose potency was defined as 1. The equivalent dosage of GHRH(1-29)NH2 to reach the same level of serum growth hormone release after injection of the specific tested peptide was determined from a GHRH(1-29)NH2 standard curve using Origin 6.0 software. […] Serum GH was determined using the rat Growth Hormone ELISA kit (ALPCO Diagnostics, Mill Valley, Calif.) according to the manufacturer's instruction. Absorbance at 405 nm was measured by a Victor 3 Multi-label Counter (Perkin-Elmer, Waltham, Md.).

Relative affinity (Binding potency) vs JI-38 (GHRH receptor [1])	Relative affinity (Binding potency) compared to JI-38 (GHRH receptor [2])	Relative affinity (Binding potency) compared to hGHRH(1-29) (GHRH receptor [2])	IC50 (GHRH receptor [1]; 125I-JV-1-42, human pituitary membranes, Table 7) [nM]	Compound	Serum GH level at selected time after injection (ng/ml), 0 min (GH release) [ng/mL]	Serum GH level at selected time after injection (ng/ml), 15 min (GH release) [ng/mL]	Serum GH level at selected time after injection (ng/ml), 30 min (GH release) [ng/mL]	Relative potency compared to GHRH(1-29), 15 min (GH release)	Relative potency compared to JI-38, 15 min (GH release)	Relative potency compared to GHRH(1-29), 30 min (GH release)	Relative potency compared to JI-38, 30 min (GH release)	GH-releasing potency after s.c. administration (in words) (GH release)
1.45	0.54	1.52		CCCC[C@H](NC(=O)[C@@H](NC(=O)[C@H](CC(=O)O)NC(=O)[C@H](CCC(N)=O)NC(=O)[C@H](CC(C)C)NC(=O)[C@H](CC(C)C)NC(=O)[C@H](CCCN)NC(=O)[C@H](CCCNC(=N)N)NC(=O)[C@H](C)NC(=O)[C@H](CO)NC(=O)[C@H](CC(C)C)NC(=O)[C@H](CCC(N)=O)NC(=O)[C@H](CC)NC(=O)[C@H](CC(C)C)NC(=O)[C@@H](NC(=O)[C@H](CCCN)NC(=O)[C@H](CCCNC(=N)N)NC(=O)[C@H](Cc1ccc(O)cc1)NC(=O)[C@H](CO)NC(=O)[C@H](CCC(N)=O)NC(=O)[C@@H](NC(=O)[C@H](Cc1ccccc1)NC(=O)[C@@H](NC(=O)[C@H](C)NC(=O)[C@H](CC(=O)O)NC(=O)[C@H](C)NC(=O)CCc1ccc(O)cc1)[C@@H](C)CC)[C@@H](C)O)C(C)C)[C@@H](C)CC)C(=O)N[C@@H](CC(=O)O)C(=O)N[C@@H](CCCNC(=N)N)C(=O)NC [Peptide P-27407, [Dat^1, Gln^8, Orn^12, Abu^15, Orn^21, Nle^27, Asp^28]hGHRH(1-29)NH—CH3] (Desaminotyrosyl-ADAIFTQSYR[Orn]VL[Abu]QLSAR[Orn]LLQDI[Nle]DR-NHMe)	36.7 ± 10.2	248.0 ± 40.5	135.2 ± 10.8	69.6	1.10	122	1.09	
7.91	0.53	1.21	0.55	CCCC[C@H](NC(=O)[C@@H](NC(=O)[C@H](CC(=O)O)NC(=O)[C@H](CCC(N)=O)NC(=O)[C@H](CC(C)C)NC(=O)[C@H](CC(C)C)NC(=O)[C@H](CCCN)NC(=O)[C@H](CCCNC(=N)N)NC(=O)[C@H](C)NC(=O)[C@H](CO)NC(=O)[C@H](CC(C)C)NC(=O)[C@H](CCC(N)=O)NC(=O)[C@H](CC)NC(=O)[C@H](CC(C)C)NC(=O)[C@@H](NC(=O)[C@H](CCCN)NC(=O)[C@H](CCCNC(=N)N)NC(=O)[C@H](Cc1ccc(O)cc1)NC(=O)[C@H](CO)NC(=O)[C@H](CCC(N)=O)NC(=O)[C@@H](NC(=O)[C@H](Cc1ccccc1)NC(=O)[C@@H](NC(=O)[C@H](C)NC(=O)[C@H](CC(=O)O)NC(=O)[C@@H](C)NC(=O)CCc1ccc(O)cc1)[C@@H](C)CC)[C@@H](C)O)C(C)C)[C@@H](C)CC)C(=O)N[C@@H](CC(=O)O)C(=O)N[C@@H](CCCNC(=N)N)C(=O)NC [Peptide P-27408, [Dat^1, D-Ala^2, Gln^8, Orn^12, Abu^15, Orn^21, Nle^27, Asp^28]hGHRH(1-30)NH—CH3] (Desaminotyrosyl-[dA]DAIFTQSYR[Orn]VL[Abu]QLSAR[Orn]LLQDI[Nle]DR-NHMe)	37.6 ± 15.5	213.3 ± 32.0	121.2 ± 8.4	57.2	0.91	100.5	0.90	
5.24	2.14	5.98		CCCC[C@H](NC(=O)[C@@H](NC(=O)[C@H](CC(=O)O)NC(=O)[C@H](CCC(N)=O)NC(=O)[C@H](CC(C)C)NC(=O)[C@H](CC(C)C)NC(=O)[C@H](CCCN)NC(=O)[C@H](CCCNC(=N)N)NC(=O)[C@H](C)NC(=O)[C@H](CO)NC(=O)[C@H](CC(C)C)NC(=O)[C@H](CCC(N)=O)NC(=O)[C@H](CC)NC(=O)[C@H](CC(C)C)NC(=O)[C@@H](NC(=O)[C@H](CCCN)NC(=O)[C@H](CCCNC(=N)N)NC(=O)[C@H](Cc1ccc(O)cc1)NC(=O)[C@H](CO)NC(=O)[C@@H](NC(=O)[C@@H](NC(=O)[C@H](Cc1ccccc1)NC(=O)[C@@H](NC(=O)[C@H](C)NC(=O)[C@H](CC(=O)O)NC(=O)[C@@H](C)NC(=O)[C@H](Cc1ccc(O)cc1)NC)[C@@H](C)CC)[C@@H](C)O)[C@@H](C)O)C(C)C)[C@@H](C)CC)C(=O)N[C@@H](CC(=O)O)C(=O)N[C@@H](CCCNC(=N)N)C(=O)NC [Peptide P-27410, [N—Me-Tyr^1, D-Ala^2, Thr^8, Orn^12, Abu^15, Orn^21, Nle^27, Asp^28]hGHRH (1-29)NH—CH3] (H-[NMeY][dA]DAIFTTSYR[Orn]VL[Abu]QLSAR[Orn]LLQDI[Nle]DR-NHMe)	34.1 ± 1.2	334.0 ± 54.0	250.4 ± 28.6	102.5	1.58	363.2	3.25*	significantly higher potencies at 30 minutes than at 15 minutes
8.37	1.01	2.83		CCCC[C@H](NC(=O)[C@@H](NC(=O)[C@H](CC(=O)O)NC(=O)[C@H](CCC(N)=O)NC(=O)[C@H](CC(C)C)NC(=O)[C@H](CC(C)C)NC(=O)[C@H](CCCN)NC(=O)[C@H](CCCNC(=N)N)NC(=O)[C@H](C)NC(=O)[C@H](CO)NC(=O)[C@H](CC(C)C)NC(=O)[C@H](CCC(N)=O)NC(=O)[C@H](CC)NC(=O)[C@H](CC(C)C)NC(=O)[C@@H](NC(=O)[C@H](CCCN)NC(=O)[C@H](CCCNC(=N)N)NC(=O)[C@H](Cc1ccc(O)cc1)NC(=O)[C@H](CO)NC(=O)[C@H](CCC(N)=O)NC(=O)[C@@H](NC(=O)[C@H](Cc1ccccc1)NC(=O)[C@@H](NC(=O)[C@H](C)NC(=O)[C@H](CC(=O)O)NC(=O)[C@@H](C)NC(=O)[C@H](Cc1ccc(O)cc1)NC)[C@@H](C)CC)[C@@H](C)O)C(C)C)[C@@H](C)CC)C(=O)N[C@@H](CC(=O)O)C(=O)N[C@@H](CCCNC(=N)N)C(=O)NCC [Peptide P-28420, [N—Me-Tyr^1, D-Ala^2, Gln^8, Orn^12, Abu^15, Orn^21, Nle^27, Asp^28]hGHRH(1-29)NH—CH2—CH3] (H-[NMeY][dA]DAIFTQSYR[Orn]VL[Abu]QLSAR[Orn]LLQDI[Nle]DR-NHEt)	35.5 ± 7.6	256.2 ± 46.0	126.1 ± 15.8	72.6	1.15	107.8	0.96	
